Assay results as given in the NIST ThermoML archive (doi:10.1021/je020196d).
± gives the expanded uncertainty stated by the source.

Key:
[1] = activity coefficient (dimensionless); of the first substance listed, at infinite dilution; xn = mol fraction of the nth substance listed; details: Liquid, x1 = 0
[2] = 293.15 K; 101.33 kPa; Liquid
[3] = refractive index (Na D-line) (dimensionless); details: 293.15 K; 101.33 kPa; Liquid; Standard Abbe refractometry

Row | SMILES | activity coefficient ([1]; 323.15 K, Chromatography) | activity coefficient ([1]; 333.15 K, Chromatography) | activity coefficient ([1]; 343.15 K, Chromatography) | activity coefficient ([1]; 353.15 K, Chromatography) | activity coefficient ([1]; 363.15 K, Chromatography) | activity coefficient ([1]; 373.1 K, Chromatography) | activity coefficient ([1]; 383.15 K, Chromatography) | activity coefficient ([1]; 393.15 K, Chromatography) | mass density [2] [kg/m3] | refractive index [3] | other results
1 | CCc1ccccc1 [ethylbenzene] + OCCOCCOCCO | 10.9 ± 0.5 | 10.3 ± 0.47 | 9.73 ± 0.45 | 9.1 ± 0.42 | 8.72 ± 0.4 | 8.39 ± 0.38 | 7.94 ± 0.36 | 7.72 ± 0.35 | – | – | –
2 | CCCCCCCC [octane] + OCCOCCOCCOCCO | – | – | – | – | – | – | – | – | – | – | activity coefficient ([1]; 333.15 K): 68.1 ± 6.4; activity coefficient ([1]; 353.15 K): 49.5 ± 4.6; activity coefficient ([1]; 363.15 K): 43.2 ± 4; activity coefficient ([1]; 373.1 K): 37.5 ± 3.5; activity coefficient ([1]; 383.15 K): 32.4 ± 3; activity coefficient ([1]; 393.15 K): 31.4 ± 2.9; activity coefficient ([1]; 403.15 K): 25.8 ± 2.4
3 | CCc1ccccc1 [ethylbenzene] | – | – | – | – | – | – | – | – | 867.4 ± 5 | 1.4955 ± 0.0007 | –
4 | OCCOCCOCCO [triethylene glycol] | – | – | – | – | – | – | – | – | 1127.8 ± 5 | 1.4556 ± 0.0007 | –
5 | CCc1ccccc1 [ethylbenzene] + OCCOCCOCCOCCO | – | 6.39 ± 0.29 | – | 5.63 ± 0.26 | 5.31 ± 0.24 | 5 ± 0.23 | 4.73 ± 0.22 | 4.58 ± 0.21 | – | – | activity coefficient ([1]; 403.15 K, Chromatography): 4.35 ± 0.2
6 | CCCCCCC [heptane] | – | – | – | – | – | – | – | – | 683.5 ± 5 | 1.3878 ± 0.0007 | –
7 | CCCCCCC [heptane] + OCCOCCOCCO | 93.3 ± 4.4 | 82.7 ± 3.9 | 71.9 ± 3.4 | 62.7 ± 2.9 | 55.3 ± 2.6 | 50.2 ± 2.3 | 44.3 ± 2.1 | 40.6 ± 1.9 | – | – | –
8 | CCCCCCC [heptane] + OCCOCCOCCOCCO | – | 50.2 ± 2.3 | – | 37.6 ± 1.7 | 32.1 ± 1.5 | 29.8 ± 1.4 | 26.1 ± 1.2 | 23.1 ± 1.1 | – | – | activity coefficient ([1]; 403.15 K, Chromatography): 20.8 ± 0.96
9 | c1ccccc1 [benzene] | – | – | – | – | – | – | – | – | 878.3 ± 5 | 1.5015 ± 0.0007 | –
10 | Cc1ccccc1 [toluene] | – | – | – | – | – | – | – | – | 866.7 ± 5 | 1.4962 ± 0.0007 | –
11 | Cc1ccccc1 [toluene] + OCCOCCOCCO | 7.11 ± 0.33 | 6.8 ± 0.31 | 6.51 ± 0.3 | 6.25 ± 0.29 | 5.99 ± 0.27 | 5.85 ± 0.27 | 5.56 ± 0.25 | 5.51 ± 0.25 | – | – | –
12 | c1ccccc1 [benzene] + OCCOCCOCCO | 4.62 ± 0.21 | 4.38 ± 0.2 | 4.26 ± 0.19 | 4.1 ± 0.19 | 3.97 ± 0.18 | 3.92 ± 0.18 | 3.82 ± 0.17 | 3.75 ± 0.17 | – | – | –
13 | c1ccccc1 [benzene] + OCCOCCOCCOCCO | – | 2.99 ± 0.14 | – | 2.73 ± 0.12 | 2.65 ± 0.12 | 2.5 ± 0.11 | 2.41 ± 0.11 | 2.37 ± 0.11 | – | – | activity coefficient ([1]; 403.15 K, Chromatography): 2.27 ± 0.1
14 | Cc1ccccc1 [toluene] + OCCOCCOCCOCCO | – | 4.5 ± 0.21 | – | 4.02 ± 0.18 | 3.85 ± 0.18 | 3.62 ± 0.16 | 3.46 ± 0.16 | 3.37 ± 0.15 | – | – | activity coefficient ([1]; 403.15 K, Chromatography): 3.21 ± 0.15

The next lines start with results.

Row | activity coefficient ([1]; 323.15 K, Chromatography) | activity coefficient ([1]; 333.15 K, Chromatography) | activity coefficient ([1]; 343.15 K, Chromatography) | activity coefficient ([1]; 353.15 K, Chromatography) | activity coefficient ([1]; 363.15 K, Chromatography) | activity coefficient ([1]; 373.1 K, Chromatography) | activity coefficient ([1]; 383.15 K, Chromatography) | activity coefficient ([1]; 393.15 K, Chromatography) | mass density [2] [kg/m3] | refractive index [3] | SMILES | other results
15 | – | – | – | – | – | – | – | – | 730.2 ± 5 | 1.4113 ± 0.0007 | CCCCCCCCCC [decane] | –
16 | – | 123 ± 5.8 | – | 87.8 ± 4.1 | 75.1 ± 3.5 | 64.4 ± 3 | 55.2 ± 2.6 | 51.3 ± 2.4 | – | – | CCCCCCCCCC [decane] + OCCOCCOCCOCCO | activity coefficient ([1]; 403.15 K, Chromatography): 42.9 ± 2
17 | – | 92.3 ± 4.3 | – | 64.7 ± 3 | 57.4 ± 2.7 | 49.3 ± 2.3 | 42.9 ± 2 | 39.7 ± 1.8 | – | – | CCCCCCCCC [nonane] + OCCOCCOCCOCCO | activity coefficient ([1]; 403.15 K, Chromatography): 34.1 ± 1.6
18 | 252 ± 12 | 219 ± 10 | 196 ± 9.3 | 162 ± 7.6 | 141 ± 6.6 | 125 ± 5.9 | 107 ± 5 | 95.6 ± 4.5 | – | – | CCCCCCCCCC [decane] + OCCOCCOCCO | –
19 | – | – | – | – | – | – | – | – | 717.8 ± 5 | 1.4057 ± 0.0007 | CCCCCCCCC [nonane] | –
20 | 129 ± 6.1 | 113 ± 5.3 | 99.5 ± 4.7 | 86.9 ± 4.1 | 75.8 ± 3.5 | 68.7 ± 3.2 | 60.5 ± 2.8 | 56.7 ± 2.6 | – | – | CCCCCCCC [octane] + OCCOCCOCCO | –
21 | 183 ± 8.6 | 156 ± 7.4 | 140 ± 6.6 | 119 ± 5.6 | 103 ± 4.8 | 93 ± 4.4 | 81.4 ± 3.8 | 73.9 ± 3.5 | – | – | CCCCCCCCC [nonane] + OCCOCCOCCO | –
22 | – | – | – | – | – | – | – | – | 702.6 ± 5 | 1.3975 ± 0.0007 | CCCCCCCC [octane] | –
